From patent US10744141B2, “Compositions and methods for treating cancer” (CASE WESTERN RESERVE UNIVERSITY, priority 2015, dated 2020)
Entries after “also recorded” stand apart in the source; their conditions may differ.

Tests used:
PP2A A-C dimer = PP2A A-C dimer (Homo sapiens, UniProt P30153+P67775); test: Radiolytic MS footprinting of PP2A A-C dimer with and without Compound 1
Excerpt: FIG. 2 is a model illustrating a visual representation of conformational changes in the PP2A A-C dimer as detected by radiolytic MS footprinting.
In order to elucidate the conformational changes in PP2A induced by SMAPs, we conducted structural mass spectrometry using radiolytic MS footprinting, a novel approach to probe the structural alterations of complexes such as PP2A. In these experiments, hydroxyl radicals are generated by an X-ray beam and oxidatively modify solvent-exposed amino acid side chains. Areas of a protein that are solvent inaccessible are spared these modifications and can be considered protected regions. Compared to the PP2A A-C dimer alone, addition of Compound 1 induced significant changes in solvent exposure in both the A and C subunits, indicating a conformational change (FIG. 2).

MOLT4 = test: Western blot time course of Y307 dephosphorylation and target engagement; format: cell-based; conditions: MOLT4, increasing doses, various timepoints
Description: FIG. 3 illustrates a western blot analysis showing the kinetics of Y307 dephosphorylation and target engagement induced by Compound 1.
To evaluate the kinetics of Y307 dephosphorylation in the context of SMAP-mediated phosphatase activation, a time course study was conducted in the c-Myc driven T-ALL cell line MOLT4 with increasing doses of Compound 1 at various timepoints. PP2A has been well established to dephosphorylate the c-Myc proto-oncogene via dephosphorylation at Serine62 as a priming event for proteasome-mediated degradation, and prior work in the lab has validated Compound 1 mediates c-Myc proteolysis in in vitro models of c-Myc driven disease.

A549 = test: MTT assay with Compound 2/Dasatinib dose escalation combinations; format: cell-based; conditions: dose escalation of both drugs in parallel
ERK = test: Time course phosphoproteomics with KSEA, ERK output; format: cell-based; conditions: H358 cells, 17.5 μM DT-061, relative to DMSO at the same time-point
Description: (§1) H358 cells (ATCC) were cultured at 37° C. and 5% CO2 using RPMI media supplemented with 10% FBS and 0.5% penicillin/streptomycin. Per condition, 20 million cells were treated with the appropriate reagent and harvested at the stated time point. The following are the doses used: 17.5 μM DT-061, 1 μM AZD6244, and 0.25 μM MK2206. Cell pellets were then stored at −80° C. for short term. To extract proteins, the cells were pulse sonicated in 2% SDS buffer over ice and in the presence of protease and phosphatase inhibitors. Cysteine amino acid residues were then reduced and alkylated. 800 μg of protein per sample was then digested with Lys-C and Trypsin overnight at 37° C. […]
(§2) The phospho-enriched peptides were analyzed by LC-MS/MS using a LTQ-Orbitrap Velos mass spectrometer (Thermo Scientific, Calif.) equipped with a nanoAcquity™ Ultra-high pressure liquid chromatography system (Waters, Mass.). […] The LC-MS/MS raw files were imported and analyzed by the Rosetta Elucidator™ and Mascot programs to sequence the peptides and to identify the parent protein.
(§3) The R programming language was used to generate the data and heat maps. […] Kinase-substrate relationships were determined from the PhosphoSitePlus database. […] The fold change (FC) for each identified hit was then calculated by taking the median peptide intensity with treatment, divided by median peptide intensity with DMSO. […]

SRC = test: Time course phosphoproteomics with KSEA, SRC output; format: cell-based; conditions: H358 cells, 17.5 μM DT-061, relative to DMSO at the same time-point
Description: as §1, §2, §3

[1] = C-terminal tail peptide [303-309]/C, residue Y or F
[2] = catalytic subunit peptide [178-186]/C, residue H179
[3] = peptide [198-217]/C, residue W200
[4] = peptide [200-217]/C, residue W209
[5] = peptide [200-223]/C, residue W200
[6] = peptide [200-223]/C, residue W209
[7] = peptide [200-223]/C, residue Y218
[8] = peptide [259-265]/C, residue Y265
[9] = peptide [279-286]/C, residue K283
[10] = peptide [279-286]/C, residue Y284

Chain of PP2A A-C dimer (P30153 whole entry): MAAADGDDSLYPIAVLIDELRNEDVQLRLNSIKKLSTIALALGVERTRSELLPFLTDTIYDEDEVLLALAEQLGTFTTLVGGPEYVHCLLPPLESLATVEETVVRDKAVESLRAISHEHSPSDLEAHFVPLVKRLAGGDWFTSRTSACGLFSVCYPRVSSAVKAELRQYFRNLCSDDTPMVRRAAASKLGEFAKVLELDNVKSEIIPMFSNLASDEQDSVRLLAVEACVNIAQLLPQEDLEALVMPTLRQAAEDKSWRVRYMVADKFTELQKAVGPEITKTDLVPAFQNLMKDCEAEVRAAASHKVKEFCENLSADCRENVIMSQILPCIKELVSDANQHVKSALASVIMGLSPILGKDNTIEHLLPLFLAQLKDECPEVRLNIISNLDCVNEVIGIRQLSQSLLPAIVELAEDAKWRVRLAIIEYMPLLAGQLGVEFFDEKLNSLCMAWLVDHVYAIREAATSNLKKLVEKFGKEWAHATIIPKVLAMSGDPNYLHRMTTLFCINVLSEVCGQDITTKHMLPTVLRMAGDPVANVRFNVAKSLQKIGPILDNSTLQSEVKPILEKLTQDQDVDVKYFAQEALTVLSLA
Chain of PP2A A-C dimer (P67775 whole entry): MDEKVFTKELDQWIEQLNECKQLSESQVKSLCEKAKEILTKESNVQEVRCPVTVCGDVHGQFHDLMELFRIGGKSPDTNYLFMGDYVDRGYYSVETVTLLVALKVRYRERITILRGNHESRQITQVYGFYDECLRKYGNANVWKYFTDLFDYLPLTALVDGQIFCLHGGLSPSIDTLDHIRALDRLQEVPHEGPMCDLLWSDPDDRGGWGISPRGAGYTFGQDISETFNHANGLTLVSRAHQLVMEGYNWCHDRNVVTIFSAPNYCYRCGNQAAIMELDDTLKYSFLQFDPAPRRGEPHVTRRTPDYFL

Which results are given for `O=S(=O)(NC[C@H](O)CN1c2ccccc2CCc2ccccc21)c1ccc(OC(F)(F)F)cc1` [Compound 1]?
Modification Rate, S^−1 + Ligand (PP2A A-C dimer; [1]): 0.56 ± 0.06 S^−1; Protection factor (PP2A A-C dimer; [1]): 12.0; decrease in solvent accessibility of the C terminal tail of the catalytic subunit (PP2A A-C dimer; Compound 1 treatment compared to control): 12 fold; Modification Rate, S^−1 + Ligand (PP2A A-C dimer; [2]): 2.4 ± 0.2 S^−1; Protection factor (PP2A A-C dimer; [2]): 7.2; Modification Rate, S^−1 + Ligand (PP2A A-C dimer; [3]): 1.8 ± 0.2 S^−1; Protection factor (PP2A A-C dimer; [3]): 6.2; Modification Rate, S^−1 + Ligand (PP2A A-C dimer; [4]): 2.3 ± 0.1 S^−1; Protection factor (PP2A A-C dimer; [4]): 4.6; Modification Rate, S^−1 + Ligand (PP2A A-C dimer; [5]): 1.4 ± 0.1 S^−1; Protection factor (PP2A A-C dimer; [5]): 4.6; Modification Rate, S^−1 + Ligand (PP2A A-C dimer; [6]): 2.1 ± 0.1 S^−1; Protection factor (PP2A A-C dimer; [6]): 5.4; Modification Rate, S^−1 + Ligand (PP2A A-C dimer; [7]): 0.31 ± 0.03 S^−1; Protection factor (PP2A A-C dimer; [7]): 0.9; Modification Rate, S^−1 + Ligand (PP2A A-C dimer; [8]): 0.12 ± 0.001 S^−1; Protection factor (PP2A A-C dimer; [8]): 4.8; Modification Rate, S^−1 + Ligand (PP2A A-C dimer; [9]): 0.14 ± 0.01 S^−1; Protection factor (PP2A A-C dimer; [9]): 15; Modification Rate, S^−1 + Ligand (PP2A A-C dimer; [10]): 0.13 ± 0.01 S^−1; Protection factor (PP2A A-C dimer; [10]): 6.1; Parp cleavage (MOLT4): resulting in Parp cleavage in a similar time-dependent manner; Y307 dephosphorylation kinetics (MOLT4): Y307 dephosphorylation occurs as a secondary event to the initial PP2A activation; also recorded: precede Y307 dephosphorylation; dephosphorylation of c-Myc (MOLT4): very rapid dephosphorylation of c-Myc

With `O=S(=O)(N[C@@H]1CCCC(N2c3ccccc3CCc3ccccc32)[C@H]1O)c1ccc(OC(F)(F)F)cc1` (stereo partly drawn) [Compound 2] as the compound, how does the “decrease of the IC50 (GI50) of Compound 2” value (A549) read?
Its value is “nearly two-fold”.

How did the “ERK activity output (KSEA)” value (ERK) turn out when `O=S(=O)(N[C@@H]1CCC[C@H](N2c3ccccc3Oc3ccccc32)[C@H]1O)c1ccc(OC(F)(F)F)cc1` [DT-061] was run?
Its value is “limited suppression of ERK output”.

And the “SRC activity output (KSEA)” value (SRC)?
Its value is “minimal changes in SRC output”.
